Source: patent EP0082498A2, “Beta-lactam compounds and process for the preparation thereof” (SAGAMI CHEMICAL RESEARCH CENTER, priority 1981, dated 1983)
Converted amounts (≈) assume the structure as drawn. Like-named read-outs stand apart in the source and are kept apart here.

Experiments:
Assay in all cases: Antibacterial activity, minimum inhibition concentration (MIC)
Assay type in all cases: cell-based
[1] = tested on: Proteus morganii IFO 3848; details: for MIC: Morganella morganii; for minimum inhibition concentration (MIC): Table 1
Experimental: (§1) Antibacterial activities of the compounds according to this invention, which had been prepared in the preceding Examples, were measured according to the method prescribed by The Committee of Amendment of "The method for measurement of the minimum inhibition concentration", The Chemotherapy Association, Japan (See Chemotherapy, Vol. 29, No. 1, pp. 76 ~ 79 (1981)).
(§2) The test results are shown in terms of the minimum inhibition concentration (MIC) (unit: µg/mℓ) in the following Tables 1 to 4.

[2] = tested on: Salmonella typhimurium IID-971; details: for MIC: Salmonella enterica, read-out: minimum inhibition concentration (MIC)
Experimental: as §1, §2

[3] = tested on: Staphylococcus aureus MS 353; details: for MIC: Staphylococcus aureus; for minimum inhibition concentration (MIC): Table 1
Experimental: as §1, §2

[4] = tested on: Salmonella typhimrium 901; details: Table 4; Salmonella typhimrium 901; read-out: minimum inhibition concentration (MIC)
Experimental: as §1, §2

[5] = IFO3848, Table 1, Proteus morganii IFO 3848, read-out: minimum inhibition concentration (MIC)
[6] = Table 1, Salmonella typhimurium IID-971
[7] = MS353, Table 1, Staphylococcus aureus MS 353, read-out: minimum inhibition concentration (MIC)

| MIC [1, 5] [µg/mL] | MIC [2, 6] [µg/mL] | MIC [3, 7] [µg/mL] | SMILES | other results |
| --- | --- | --- | --- | --- |
| ≤ 0.006 | ≤ 0.006 | 1.56 (≈ 2.96 µM) | CSC=C(C(=O)NC1C(=O)N2C(C(=O)O)=C(CSc3nnnn3C)CSC12)c1csc(N)n1 (stereo not drawn) [Example 12, 7-[2-Methylmercaptomethylene-2-(2-aminothiazol-4-yl)-acetamido]-3-(l-methyl-lH-tetrazol-5-yl)thiomethyl-3-cephem-4-carboxylic acid] |  |
| ≤ 0.006 | ≤ 0.006 | 1.56 | CCSC=C(C(=O)NC1C(=O)N2C(C(=O)O)=C(CSc3nnnn3C)CSC12)c1csc(N)n1 (stereo not drawn) [Example 10, sodium 7-[2-ethylmercaptomethylene-2-(2-aminothiazol-4-yl)acetamido]-3-(l-methyl-lH-tetrazol-5-yl)thiomethyl-3-cephem-4-carboxylate] |  |
|  | 25 | 3.12 | Cn1nnnc1SCC1=C(C(=O)O)N2C(=O)C(NC(=O)C(=CCl)Sc3cnc(N)s3)C2SC1 (stereo not drawn) [Example 9, sodium 7-[2-chloromethylene-3-(2-aminothiazol-5-yl)mercaptoacetamido]-3-(1-methyl-1H-tetrazol-5-yl)thiomethyl-3-cephem-4-carboxylate] |  |
| ≤ 0.006 | ≤ 0.006 | 0.78 (≈ 1.54 µM) | Cn1nnnc1SCC1=C(C(=O)O)N2C(=O)C(NC(=O)C(=CC#N)c3csc(N)n3)C2SC1 (single isomer, unassigned) [Example 16, 7-[2-Cyanomethylene-2-(2-aminothiazol-4-yl)acetamido]-3-(l-methyl-lH-tetrazol-5-yl)thiomethyl-3-cephem-4-carboxylic acid] |  |
| ≤ 0.006 | ≤ 0.006 | 1.56 (≈ 2.79 µM) | Nc1nc(C(=CCl)C(=O)NC2C(=O)N3C(C(=O)O)=C(CSc4nnnn4CC(=O)O)CS[C@H]23)cs1 (single isomer, unassigned) [Example 19, 7-[2-Chloromethylene-2-(2-aminothiazol-4-yl)acetamido]-3-(1-carboxymethyl-1H-tetrazol-5-yl)thiomethyl-3-cephem-4-carboxylic acid] |  |
|  | 0.78 (≈ 1.58 µM) |  | Cn1nnnc1SCC1=C(C(=O)O)N2C(=O)C(NC(=O)C(=CCl)c3ccccc3)C2SC1 (single isomer, unassigned) [Example 5, 7-(2-chloromethylenephenylacetamido)-3-(1-methyl-lH-tetrazol-5-yl)thiomethyl-3-cephem-4-carboxylic acid] | minimum inhibition concentration (MIC) ([1]; Proteus morganii IFO 3848): 0.78 µg/mL (≈ 1.58 µM); minimum inhibition concentration (MIC) ([3]; Staphylococcus aureus MS 353): 0.05 µg/mL (≈ 0.101 µM) |
|  |  |  | Nc1nc(C(=CCl)C(=O)NC2C(=O)N3C(C(=O)[O-])=C(CSc4nncs4)CS[C@H]23)cs1.[Na+] (single isomer, unassigned) [Example 3, sodium 7-[2-chloromethylene-2-(2-aminothiazol-4-yl)acetamido]-3-(1,3,4-thiadiazol-5-yl)thiomethyl-3-cephem-4-carboxylate] | MIC ([1]; IFO3848, read-out: minimum inhibition concentration (MIC)): ≤ 0.006 µg/mL; MIC [2]: ≤ 0.006 µg/mL; MIC ([3]; MS353, read-out: minimum inhibition concentration (MIC)): 0.1 µg/mL |
| ≤ 0.006 | ≤ 0.006 | 0.78 | Cn1nc(O)c(=O)nc1SCC1=C(C(=O)O)N2C(=O)C(NC(=O)C(=CCl)c3csc(N)n3)C2SC1 (single isomer, unassigned) [Example 4, disodium 7-[2-chloromethylene-2-(2-aminothiazol-4-yl)acetamido]-3-(2,5-dihydro-6-hydroxy-2-methyl-5-oxo-as-triazin-3-yl)thiomethyl-3-cephem-4-carboxylate] |  |
|  | 25 | 0.78 | CC(=O)OCC1=C(C(=O)O)N2C(=O)C(NC(=O)C(=CCl)c3cnc(N)s3)C2SC1 (stereo not drawn) [Example 8, sodium 7-[2-chloromethylene-2-(2-aminothiazol-5-yl)acetamido]-cephalosporanate] |  |
|  |  |  | Cn1nnnc1SCC1=C(C(=O)O)N2C(=O)C(NC(=O)C(=CCl)c3ccccc3)C2SC1 (single isomer, unassigned) [Example 6, 7-(2-chloromethylenephenylacetamido)-3-(l-methyl-lH-tetrazol-5-yl)thiomethyl-3-cephem-4-carboxylic acid] | minimum inhibition concentration (MIC) ([1]; Proteus morganii IFO 3848): 6.25 µg/mL (≈ 12.7 µM); minimum inhibition concentration (MIC) [2, 6]: 1.56 µg/mL (≈ 3.16 µM); minimum inhibition concentration (MIC) ([3]; Staphylococcus aureus MS 353): 0.78 µg/mL (≈ 1.58 µM) |
|  |  |  | Cn1nnnc1SCC1=C(C(=O)O)N2C(=O)C(NC(=O)C(=CC#N)c3csc(NC=O)n3)[C@H]2SC1 (single isomer, unassigned) [Example 13, 7-[2-Cyanomethylene-2-(2-formylaminothiazol-4-yl)acetamido]-3-(1-methyl-1H-tetrazol-5-yl)thiomethyl-3-cephem-4-carboxylic acid] | minimum inhibition concentration (MIC) ([1]; Proteus morganii IFO 3848): 50 µg/mL (≈ 93.7 µM); minimum inhibition concentration (MIC) [2, 6]: 25 µg/mL (≈ 46.9 µM); minimum inhibition concentration (MIC) ([3]; Staphylococcus aureus MS 353): 50 µg/mL (≈ 93.7 µM) |
| 0.39 | 0.39 | 100 | Cl.Cn1nnnc1SCC1=C(C(=O)O)N2C(=O)C(NC(=O)C(=CC#N)c3csc(N)n3)[C@H]2SC1 (single isomer, unassigned) [Example 14, 7-[2-Cyanomethylene-2-(2-aminothiazol-4-yl)acetamido]-3-(1-methyl-1H-tetrazol-5-yl)thiomethyl-3-cephem-4-carboxylic acid hydrochloride salt] |  |
| 0.0125 (≈ 0.0223 µM) | ≤ 0.006 | 0.2 (≈ 0.357 µM) | Cn1nnnc1SCC1=C(C(=O)O)N2C(=O)C(NC(=O)C(=CBr)c3csc(N)n3)C2SC1 (stereo not drawn) [Example 21, 7-[2-Bromomethylene-2-(2-aminothiazol-4-yl)acetamido]-3-(l-methyl-lH-tetrazol-5-yl)thiomethyl-3-cephem-4-carboxylic acid] |  |
| 1.56 | 1.56 | 0.39 | Cn1nnnc1SCC1=C(C(=O)O)N2C(=O)C(NC(=O)C(=CCl)c3cnc(N)s3)C2SC1 (stereo not drawn) [Example 7, sodium 7-[2-chloromethylene-2-(2-aminothiazol-5-yl)acetamido]-3-(l-methyl-lH-tetrazol-5-yl)thiomethyl-3-cephem-4-carboxylate] |  |
|  |  |  | CCSC=C(C(=O)NC1C(=O)N2C(C(=O)O)=C(CSc3nnnn3C)CSC12)c1csc(N)n1 (stereo not drawn) [Example 11, 7-[2-ethylmercaptomethylene-2-(2-aminothiazol-4-yl)-acetamido]-3-(l-methyl-lH-tetrazol-5-yl)thiomethyl-3-cephem-4-carboxylic acid] | minimum inhibition concentration (MIC) ([1]; Proteus morganii IFO 3848): ≤ 0.006 µg/mL; minimum inhibition concentration (MIC) [2, 6]: ≤ 0.006 µg/mL; minimum inhibition concentration (MIC) ([3]; Staphylococcus aureus MS 353): 0.78 µg/mL (≈ 1.44 µM) |
|  |  |  | Cn1nnnc1SCC1=C(C(=O)O)N2C(=O)C(NC(=O)C(=CC#N)c3csc(NC=O)n3)[C@H]2SC1 (single isomer, unassigned) [Example 15, 7-[2-Cyanomethylene-2-(2-formylaminothiazol-4-yl)acetamido]-3-(1-methyl-1H-tetrazol-5-yl)thiomethyl-3-cephem-4-carboxylic acid] | minimum inhibition concentration (MIC) ([1]; Proteus morganii IFO 3848): 0.39 µg/mL (≈ 0.731 µM); minimum inhibition concentration (MIC) [2, 6]: 0.05 µg/mL (≈ 0.0937 µM); minimum inhibition concentration (MIC) ([3]; Staphylococcus aureus MS 353): 1.56 µg/mL (≈ 2.92 µM) |
| ≤ 0.006 | 0.1 (≈ 0.191 µM) | 12.5 (≈ 23.9 µM) | Cn1nnnc1SCC1=C(C(=O)O)N2C(=O)C(NC(=O)C(=CC(N)=O)c3csc(N)n3)C2SC1 (single isomer, unassigned) [Example 18, 7-[2-Carbamoylmethylene-2-(2-aminothiazol-4-yl)acetamido]-3-(1-methyl-lH-tetrazol-5-yl)thiomethyl-3-cephem-4-carboxylic acid] |  |
|  |  |  | NC(=O)Cn1nnnc1SCC1=C(C(=O)O)N2C(=O)C(NC(=O)C(=CCl)c3csc(N)n3)C2SC1 (single isomer, unassigned) [Example 29, sodium 7-[2-chloromethylene-2-(2-aminothiazol-4-yl)acetamido]-3-(1-carbamoylmethyl-1,2,3,4-tetrazol-5-yl)thiomethyl-3-cephem-4-carboxylate] | MIC ([3]; MS353, Table 4, Staphylococcus aureus MS 353, read-out: minimum inhibition concentration (MIC)): 0.78 µg/mL; MIC [4]: 0.1 µg/mL |
| ≤ 0.006 | ≤ 0.006 | 0.1 | Cc1nnc(SCC2=C(C(=O)O)N3C(=O)C(NC(=O)C(=CCl)c4csc(N)n4)C3SC2)s1 (single isomer, unassigned) [Example 1, sodium 7-[2-chloromethylene-2-(2-aminothiazol-4-yl)acetamido]-3-(2-methyl-l,3,4-thiadiazol-5-yl)thiomethyl-3-cephem-4-carboxylate] |  |
| ≤ 0.006 | 0.0125 (≈ 0.0233 µM) | 3.12 (≈ 5.81 µM) | COC(=N)C=C(C(=O)NC1C(=O)N2C(C(=O)O)=C(CSc3nnnn3C)CSC12)c1csc(N)n1 (single isomer, unassigned) [Example 17, 7-[2-(o-methylcarboxyimidoylmethylene)-2-(2-aminothiazol-4-yl)acetamido]-3-(1-methyl-1H-tetrazol-5-yl)thiomethyl-3-cephem-4-carboxylic acid] |  |
| ≤ 0.006 | ≤ 0.006 | 0.1 (≈ 0.178 µM) | CSc1nnc(SCC2=C(C(=O)O)N3C(=O)C(NC(=O)C(=CCl)c4csc(N)n4)C3SC2)s1 (single isomer, unassigned) [Example 20, 7-[2-chloromethylene-2-(2-aminothiazol-4-yl)acetamido]-3-(2-methylthio-l,3,4-thiadiazol-5-yl)thiomethyl-3-cephem-4-carboxylic acid] |  |

| SMILES | MIC [1, 5] [µg/mL] | MIC [2, 6] [µg/mL] | MIC [3, 7] [µg/mL] | other results |
| --- | --- | --- | --- | --- |
| CC1=C(C(=O)O)N2C(=O)C(NC(=O)C(=CCl)c3csc(N)n3)C2SC1 (single isomer, unassigned) [Example 2, sodium 7-[2-chloromethylene-2-(2-aminothiazol-4-yl)acetamido]desacetoxy-cephalosporanate] | 0.0125 | 0.0125 | 6.25 |  |
